Test results taken from US20240400584A1, “COMPOUNDS AND METHODS FOR MODULATING SPLICING” (REMIX THERAPEUTICS INC., priority 2021, published 2024).
Read-outs that look alike come from different tables or passages of the source.

Assays:
[1] = tested on: MYB; assay: Gene panel canonical junction qPCR assay, MYB CJ mRNA (Table 7); format: cell-based; settings: Homo sapiens, read-out: MYB CJ mRNA decrease IC50
In short: (§1)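 Canonical-junction transcript levels are quantified by RT-qPCR after compound treatment of K562 or A673 cells. Primers or a CY5 probe overlap the exon junction; signals are normalized to GAPDH, GUSB or PPIA and to DMSO, then scaled to a set ΔCt assay window and fitted for IC50.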

[2] = tested on: Target C; assay: Gene panel canonical junction qPCR assay, Target C CJ mRNA (Table 7); format: cell-based, human; settings: read-out: Target C CJ mRNA decrease IC50
In short: as §1

[3] = tested on: MYB; assay: RT-qPCR splicing assay, MYB AJ/CJ mRNA; format: cell-based; settings: Homo sapiens, A673 or K562 cells, 24 hours; for IC50: decrease in canonical junction mRNA; for AC50: increase in alternative junction mRNA
In short: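 HTT and MYB canonical (CJ) and alternative-exon (AJ) junction transcripts quantified by one-step RT-qPCR from lysates of A673 or K562 cells treated 24 h with 11-point 3-fold dilutions (top 10 uM, ≤0.25% DMSO). Ct normalized to GAPDH, GUSB or PPIA and DMSO control (2^−ΔΔCt), expressed as % response.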

[4] = tested on: HTT; assay: Gene panel canonical junction qPCR assay, HTT CJ mRNA (Table 7); format: cell-based, human; settings: read-out: HTT CJ mRNA decrease IC50
In short: as §1

Row | Structure (SMILES) | IC50 [1] [µM] | IC50 ([2]; Homo sapiens) [µM] | IC50 [3] [µM] | AC50 [3] [µM] | IC50 ([4]; Homo sapiens) [µM] | IC50 [2] [µM] | IC50 [4] [µM]
1 | C[C@@H]1C[C@H](N(C)c2ccc3c(c2)OCc2cc(-c4cn[nH]c4)ccc2-3)CCN1 [Compound 101] | > 10 | > 10 | > 10 | 1 to 10 | – | – | –
2 | C[C@H]1C[C@H](N(C)c2ccc3c(c2)OCc2cc(-c4cn[nH]c4)ccc2-3)CCN1 [Compound 102] | > 10 | > 10 | > 10 | 1 to 10 | > 10 | – | –
3 | CN(c1ccc2c(c1)OCc1cc(-c3cn[nH]c3)ccc1-2)[C@@H]1C[C@H]2CC[C@@H](C1)N2 [Compound 104] | > 10 | > 10 | > 10 | > 10 | > 10 | – | –
4 | CN(c1ccc2c(c1)OCc1cc(-n3cccn3)ccc1-2)[C@@H]1C[C@H]2CC[C@@H](C1)N2 [Compound 105] | > 10 | – | > 10 | > 10 | > 10 | – | –
5 | CN(c1ccc2c(n1)OCc1cc(-c3cn[nH]c3)ccc1-2)[C@@H]1C[C@H]2CC[C@@H](C1)N2 [Compound 108] | 0.1 to 1 | < 0.1 | 0.1 to 1 | 1 to 10 | < 0.1 | – | –
6 | CN(c1ccc2c(c1)CCOc1cc(-n3cccn3)ccc1-2)[C@@H]1C[C@H]2CC[C@@H](C1)N2 [Compound 113] | > 10 | > 10 | > 10 | > 10 | > 10 | – | –
7 | CN(c1ccc2c(n1)OCc1cc(-c3cn[nH]c3)ccc1-2)C1CCNCC1 [Compound 116] | 1 to 10 | 0.1 to 1 | 1 to 10 | 1 to 10 | 0.1 to 1 | – | –
8 | CN(c1ccc2c(c1)COc1cc(-n3cccn3)ccc1-2)C1CC(C)(C)NC(C)(C)C1 [Compound 117] | 1 to 10 | – | 1 to 10 | > 10 | > 10 | – | –
9 | CC1(C)CC(Nc2ccc3c(c2)COc2cc(-n4cccn4)ccc2-3)CC(C)(C)N1 [Compound 118] | > 10 | – | > 10 | > 10 | > 10 | – | –
10 | CN(c1ccc2c(n1)COc1cc(-c3cn[nH]c3)ccc1-2)[C@@H]1C[C@H]2CC[C@@H](C1)N2 [Compound 121] | 1 to 10 | 0.1 to 1 | 1 to 10 | 1 to 10 | 0.1 to 1 | – | –
11 | CN(c1ccc2c(n1)COc1cc(-n3cccn3)ccc1-2)[C@@H]1C[C@H]2CC[C@@H](C1)N2 [Compound 124] | 1 to 10 | 1 to 10 | 1 to 10 | > 10 | 1 to 10 | – | –
12 | CN(c1ccc2c(n1)COc1cc(-n3cccn3)ccc1-2)C1CC(C)(C)NC(C)(C)C1 [Compound 125] | > 10 | > 10 | > 10 | > 10 | > 10 | – | –
13 | CN(c1ccc2c(n1)CCOc1cc(-n3cccn3)ccc1-2)C1CC(C)(C)NC(C)(C)C1 [Compound 129] | > 10 | > 10 | > 10 | > 10 | > 10 | – | –
14 | CC1(C)CC(Nc2ccc3c(n2)COc2cc(-n4cccn4)ccc2-3)CC(C)(C)N1 [Compound 134] | 1 to 10 | < 0.1 | 1 to 10 | > 10 | 1 to 10 | – | –
15 | CN(c1cnc2c(n1)OCc1cc(-c3cn[nH]c3)ccc1-2)C1CC(C)(C)NC(C)(C)C1 [Compound 142] | 0.1 to 1 | – | 0.1 to 1 | 1 to 10 | – | 1 to 10 | 0.1 to 1
16 | c1cc2c(cc1-c1cn[nH]c1)COc1nc(N[C@@H]3C[C@H]4CC[C@@H](C3)N4)cnc1-2 [Compound 143] | 0.1 to 1 | 0.1 to 1 | 0.1 to 1 | 1 to 10 | 0.1 to 1 | – | –
17 | CN(c1cnc2c(n1)OCc1cc(-c3cn[nH]c3)ccc1-2)[C@@H]1C[C@H]2CC[C@@H](C1)N2 [Compound 144] | 0.1 to 1 | 0.1 to 1 | 0.1 to 1 | 0.1 to 1 | 0.1 to 1 | – | –
18 | CN(c1ccc2c(n1)OCCc1cc(-c3cn[nH]c3)ccc1-2)C1CC(C)(C)NC(C)(C)C1 [Compound 145] | 1 to 10 | 1 to 10 | 1 to 10 | > 10 | > 10 | – | –
19 | CN(c1ccc2c(n1)OCCc1cc(-c3cn[nH]c3)ccc1-2)[C@@H]1C[C@H]2CC[C@@H](C1)N2 [Compound 146] | > 10 | > 10 | > 10 | > 10 | 1 to 10 | – | –
20 | CN(c1ccc2c(n1)OCc1cc(-c3cn[nH]c3)ccc1-2)C1CC(C)(C)NC(C)(C)C1 [Compound 147] | 1 to 10 | 0.1 to 1 | 1 to 10 | 1 to 10 | 0.1 to 1 | – | –
21 | CN(c1ccc2c(n1)OCc1cc(-n3cccn3)ccc1-2)C1CC(C)(C)NC(C)(C)C1 [Compound 148] | 1 to 10 | 1 to 10 | 1 to 10 | 1 to 10 | 1 to 10 | – | –
22 | CN(c1ccc2c(n1)OCc1cc(-n3cccn3)ccc1-2)[C@@H]1C[C@H]2CC[C@@H](C1)N2 [Compound 149] | 0.1 to 1 | 0.1 to 1 | 0.1 to 1 | 0.1 to 1 | 0.1 to 1 | – | –
23 | CN(c1ccc2c(n1)OCc1cc(-n3nccn3)ccc1-2)[C@@H]1C[C@H]2CC[C@@H](C1)N2 [Compound 151] | 0.1 to 1 | 0.1 to 1 | 0.1 to 1 | 0.1 to 1 | < 0.1 | – | –
24 | CN(c1ccc2c(n1)OCc1cc(-n3ccnn3)ccc1-2)[C@@H]1C[C@H]2CC[C@@H](C1)N2 [Compound 152] | 0.1 to 1 | 0.1 to 1 | 0.1 to 1 | 0.1 to 1 | 0.1 to 1 | – | –
25 | CN(c1ccc2c(n1)OCc1cc(-c3ccn(C)c(=O)c3)ccc1-2)[C@@H]1C[C@H]2CC[C@@H](C1)N2 [Compound 153] | 0.1 to 1 | < 0.1 | 0.1 to 1 | < 0.1 | < 0.1 | – | –
26 | Cc1[nH]ncc1-c1ccc2c(c1)COc1nc(N(C)[C@@H]3C[C@H]4CC[C@@H](C3)N4)ccc1-2 [Compound 154] | 0.1 to 1 | 0.1 to 1 | 0.1 to 1 | < 0.1 | 0.1 to 1 | – | –
27 | Cc1ncc(-c2ccc3c(c2)COc2nc(N(C)[C@@H]4C[C@H]5CC[C@@H](C4)N5)ccc2-3)o1 [Compound 155] | 0.1 to 1 | 0.1 to 1 | 0.1 to 1 | 0.1 to 1 | < 0.1 | – | –
28 | COc1cc(-c2ccc3c(c2)COc2nc(N(C)[C@@H]4C[C@H]5CC[C@@H](C4)N5)ccc2-3)ccn1 [Compound 156] | 0.1 to 1 | 0.1 to 1 | 0.1 to 1 | 0.1 to 1 | < 0.1 | – | –
29 | CN(c1ccc2c(n1)OCc1cc(-c3ccc(=O)[nH]c3)ccc1-2)[C@@H]1C[C@H]2CC[C@@H](C1)N2 [Compound 157] | 1 to 10 | 1 to 10 | 1 to 10 | 1 to 10 | 1 to 10 | – | –
30 | CN(c1ccc2c(n1)OCc1cc(-c3ccc(=O)n(C)c3)ccc1-2)[C@@H]1C[C@H]2CC[C@@H](C1)N2 [Compound 158] | 0.1 to 1 | 0.1 to 1 | 0.1 to 1 | 1 to 10 | 0.1 to 1 | – | –
